Patent US20100029654A1, “CARDIOVASCULAR COMPOSITIONS AND USE OF THE SAME FOR THE TREATMENT OF ALZHEIMER'S DISEASE” (MOUNT SINAI SCHOOL OF MEDICINE, priority 2006, published 2010)
Structures can show the parent of a compound that is named as a salt. Where two headings read alike, the source gives them in different places.

Columns and labels:
[1] = system: Aβ1-40; assay: Aβ1-40 content in conditioned medium of primary cortico-hippocampal neuron cultures from Tg2576 mice (ELISA; primary and secondary dose-response screening); type: cell-based, mouse; conditions: for activity at 100 µM: Mus musculus, Neuron, 24 h, read-out: Ab1-40 (% of ctl); for activity at 100 µM / Ab1-40 (% of ctl): drug 100 μM; for reduced Aβ1-40: <85% of ctl
Description: (§1) Potential Aβ-lowering activity was assessed for 150 commercially available cardiovascular drugs using primary cortico-hippocampal neuron cultures derived from embryonic Tg2576 (El 6). […] All cardiovascular reagents were obtained from MicroSource Discovery Systems Inc (Gaylordsville, Conn.). […] Individual cardiovascular agents were applied directly to the culture medium (final 1% DMSO in the culture media). In control studies, parallel Tg2576 primary neuron cultures were treated with vehicle (1% DMSO) alone. The influence of drug treatments in Aβ content in the conditioned medium in treated cultures was assessed by assessing steady state levels of Aβ1-40 and Aβ1-42 in the culture media 24 hours after treatment.
(§2) Embryonic brain tissue was mechanically triturated and centrifuged. Neurons were seeded onto poly-D-lysine-coated 96-well plates at 1.0×10^5 cells per well and cultured in the serum-free chemically-defined medium Neurobasal, supplemented with 2% B27, 0.5 mM L-glutamine and 1% penicillin-streptomycin (Gibco-BRL).
(§3) For primary screening, cultured neurons were treated with 100 μM of drug in duplicates for 16 hours; all drugs were obtained in stock from MicroSource Discovery Systems Inc (Gaylordsville, Conn.). Conditioned medium was collected for Aβ detection using commercially available ELISA kits (BioSource). […] Primary neurons prepared in 96-well plates were treated with 0.1 μM, 1 μM, 10 μM, 50 μM, and 100 μM of each drug in duplicate for ˜16 hours and conditioned medium was collected for Aβ detection.

[2] = system: Aβ1-42; assay: Aβ1-42 content in conditioned medium of primary cortico-hippocampal neuron cultures from Tg2576 mice (ELISA; primary and secondary dose-response screening); type: cell-based, mouse; conditions: for activity at 100 µM: Mus musculus, Neuron, 24 h, read-out: Ab1-42 (% of ctl); for activity at 100 µM / Ab1-42 (% of ctl): drug 100 μM; for reducing Aβ1-42: <85% of ctl
Description: as §1, §2, §3

[3] = system: primary cortico-hippocampal neuron cultures; assay: MTT in primary screening
[4] = system: primary cortico-hippocampal neuron cultures; assay: lactate dehydrogenase (LDH) activity assay in parallel neuron cultures
Description: For in vitro treatments drugs available from “The Spectrum Collection” in stocks of 10 mM in DMSO were applied directly to cultures to the desired concentrations (final 1% DMSO); control primary neuron cultures from Tg2576 embryos were treated with vehicle resulting in a final 1% DMSO.
Cell viability was assessed using a commercial available LDH assay kit according to the manufacture's instruction (Promega).

[5] = Primary Screening, table sorted by Aβ1-40
[6] = primary screening, Tg2576 neuron cultures, table sorted by Aβ1-42
[7] = primary screening, table sorted by Aβ1-42

Compound	MTT (% of ctl) [3, 5]	MTT (% of ctl) [3, 7]	LDH (% of ctl) [4, 5]	LDH (% of ctl) [4, 7]	activity at 100 µM [1, 5] [%]	activity at 100 µM [1, 6] [%]	reduced Aβ1-40 ([1]; primary screening)	activity at 100 µM [2, 5] [%]	activity at 100 µM [2, 6] [%]	reducing Aβ1-42 ([2]; primary screening)	Ab1-40 (% of ctl) [1, 5]	Ab1-40 (% of ctl) [1, 6]	Ab1-42 (% of ctl) [2, 5]	Ab1-42 (% of ctl) [2, 6]
C=CCSCC1Nc2cc(Cl)c(S(N)(=O)=O)cc2S(=O)(=O)N1 (stereo not drawn) [Althiazide]	99.7 % of ctl	99.7 % of ctl	109.0 % of ctl	109.0 % of ctl	74.4	74.4	reduced Aβ1-40	65.4	65.4	useful in reducing Aβ1-42	–	–	–	–
C[C@H](CS)C(=O)N1CCC[C@H]1C(=O)O [Captopril]	62.3 % of ctl	62.3 % of ctl	120.2 % of ctl	120.2 % of ctl	104	104	–	99.7	99.7	–	–	–	–	–
CN1C(C)(C)CCCC1(C)C [Pempidine Tartrate]	91.3 % of ctl	91.3 % of ctl	108.4 % of ctl	108.4 % of ctl	80.9	80.9	reduced Aβ1-40	78.6	78.6	useful in reducing Aβ1-42	–	–	–	–
CC(C)(C)NCC(O)COc1cccc2[nH]c(=O)[nH]c12 (stereo not drawn) [2-HYDROXY-4-(2-HYDROXY-3-T-BUTYLAMINOPROPOXY)-BENZIMIDAZOLE]	97.1 % of ctl	97.1 % of ctl	109.3 % of ctl	109.3 % of ctl	99.2	99.2	–	104	104	–	–	–	–	–
CC(=O)O[C@H]1C[C@H](O[C@H]2[C@@H](O)C[C@H](O[C@H]3[C@@H](O)C[C@H](O[C@H]4CC[C@@]5(C)[C@H](CC[C@@H]6[C@@H]5C[C@@H](O)[C@]5(C)[C@@H](C7=CC(=O)OC7)CC[C@]65O)C4)O[C@@H]3C)O[C@@H]2C)O[C@H](C)[C@H]1O[C@@H]1O[C@H](CO)[C@@H](O)[C@H](O)[C@H]1O [Lanatoside C]	66.5 % of ctl	66.5 % of ctl	166.0 % of ctl	166.0 % of ctl	–	–	reduced Aβ1-40	–	–	–	45.8 % of ctl	45.8 % of ctl	100.3 % of ctl	100.3 % of ctl
CN1C[C@H](CNC(=O)OCc2ccccc2)C[C@@H]2c3cccc4c3c(cn4C)C[C@H]21 [Metergoline]	76.5 % of ctl	76.5 % of ctl	159.3 % of ctl	159.3 % of ctl	-3.1	-3.1	reduced Aβ1-40	2.3	2.3	useful in reducing Aβ1-42	–	–	–	–
COc1ccc2c(c1OC)C(=O)O[C@H]2[C@@H]1c2cc3c(cc2CCN1C)OCO3 [1S,9R-Beta-HYDRASTINE]	101.1 % of ctl	101.1 % of ctl	114.2 % of ctl	114.2 % of ctl	–	–	–	–	–	–	114.5 % of ctl	114.5 % of ctl	123.6 % of ctl	123.6 % of ctl
C[C@]12CCC(=O)C=C1C=C[C@@H]1[C@@H]2CC[C@@]2(C)[C@H]1CC[C@@]2(O)CCC(=O)O [Canrenoic Acid, Potassium Salt]	102.1 % of ctl	102.1 % of ctl	106.9 % of ctl	106.9 % of ctl	101	101	–	106	106	–	–	–	–	–
CC(=O)CC(c1ccccc1)c1c(O)c2ccccc2oc1=O (stereo not drawn) [Warfarin]	100.1 % of ctl	100.1 % of ctl	106.6 % of ctl	106.6 % of ctl	89.4	89.4	–	107	107	–	–	–	–	–

Continued, in another order:

MTT (% of ctl) [3, 5]	MTT (% of ctl) [3, 7]	LDH (% of ctl) [4, 5]	LDH (% of ctl) [4, 7]	Compound	activity at 100 µM [1, 5] [%]	activity at 100 µM [1, 6] [%]	reduced Aβ1-40 ([1]; primary screening)	activity at 100 µM [2, 5] [%]	activity at 100 µM [2, 6] [%]	reducing Aβ1-42 ([2]; primary screening)	Ab1-40 (% of ctl) [1, 5]	Ab1-40 (% of ctl) [1, 6]	Ab1-42 (% of ctl) [2, 5]	Ab1-42 (% of ctl) [2, 6]
96.1 % of ctl	96.1 % of ctl	102.2 % of ctl	102.2 % of ctl	CCOc1ccccc1OCCN[C@H](C)Cc1ccc(OC)c(S(N)(=O)=O)c1.Cl [Tamsulosin Hydrchloride]	–	–	–	–	–	–	106.5 % of ctl	106.5 % of ctl	91.8 % of ctl	91.8 % of ctl
109.4 % of ctl	109.4 % of ctl	111.3 % of ctl	111.3 % of ctl	CCCc1nc2c(C)cc(-c3nc4ccccc4n3C)cc2n1Cc1ccc(-c2ccccc2C(=O)O)cc1 [Telmisartan]	91.1	91.1	–	112	112	–	–	–	–	–
99.7 % of ctl	99.7 % of ctl	106.2 % of ctl	106.2 % of ctl	COc1cc2ccc(=O)oc2cc1O [Scopoletin]	71.9	71.9	reduced Aβ1-40	109	109	–	–	–	–	–
85.2 % of ctl	85.2 % of ctl	109.2 % of ctl	109.2 % of ctl	O=c1oc2c(O)c(O)cc3c(=O)oc4c(O)c(O)cc1c4c23 [Ellagic Acid]	96.6	96.6	–	94	94	–	–	–	–	–
102.9 % of ctl	102.9 % of ctl	96.4 % of ctl	96.4 % of ctl	CCOC(=O)[C@H](CCc1ccccc1)N[C@@H](C)C(=O)N1[C@H](C(=O)O)C[C@@H]2CCC[C@@H]21 [Ramipril]	107	107	–	105	105	–	–	–	–	–
101.4 % of ctl	101.4 % of ctl	75.6 % of ctl	75.6 % of ctl	CCC(=O)O[C@@H](O[P@](=O)(CCCCc1ccccc1)CC(=O)N1C[C@H](C2CCCCC2)C[C@H]1C(=O)O)C(C)C [Fosinopril Sodium]	94.7	94.7	–	95	95	–	–	–	–	–
99.5 % of ctl	99.5 % of ctl	103.1 % of ctl	103.1 % of ctl	CC(CCc1ccc(O)cc1)NCCc1ccc(O)c(O)c1 (stereo not drawn) [Dobutamine Hydrochloride]	90.1	90.1	–	103	103	–	–	–	–	–
117.0 % of ctl	117.0 % of ctl	100.6 % of ctl	100.6 % of ctl	CC(=O)S[C@@H]1CC2=CC(=O)CC[C@]2(C)[C@H]2CC[C@@]3(C)[C@@H](CC[C@@]34CCC(=O)O4)[C@H]12 [Spironolactone]	60.4	60.4	reduced Aβ1-40	70.7	70.7	useful in reducing Aβ1-42	–	–	–	–
94.8 % of ctl	94.8 % of ctl	109.3 % of ctl	109.3 % of ctl	CC(C)(Sc1cc(C(C)(C)C)c(O)c(C(C)(C)C)c1)Sc1cc(C(C)(C)C)c(O)c(C(C)(C)C)c1 [Probucol]	76.8	76.8	reduced Aβ1-40	136	136	–	–	–	–	–
7.2 % of ctl	7.2 % of ctl	1065.9 % of ctl	1065.9 % of ctl	C1CCC(C(CC2CCCCN2)C2CCCCC2)CC1 (stereo not drawn) [Perhexiline Maleate]	4.8	4.8	reduced Aβ1-40	26.2	26.2	useful in reducing Aβ1-42	–	–	–	–
